Data set [1] is described as follows: In vitro toxicity to human cells (cell viability assay). Format: cell-based. The settings on record: human foreskin fibroblasts (HFFs), average ± SD, three independent experiments. The method, then: HFF cells are selected for cytotoxicity testing in this study, providing a physiologically relevant model for the evaluation of drug interactions with human cells. […] This designation makes them a suitable model for the investigation of cellular processes and their sensitivity to toxic substances, which is crucial for the early identification of potential adverse effects of drugs during the development process.
The IC50 or CC50 values were determined from three independent experiments by plotting the logarithmic concentration of the compound against the percent parasite inhibition or cell growth inhibition, respectively. Nonlinear regression analysis was conducted using GraphPad Prism 10 (GraphPad Software, Inc., La Jolla, CA, USA). Comparisons between groups were evaluated using either one-way or two-way ANOVA followed by Tukey's or Fisher's multiple comparisons tests. A p-value of <0.05 was considered to indicate statistical significance and is denoted by an asterisk or a symbol. The meaning of each symbol is specified in the corresponding figure legend alongside the name of the employed test.

In data set [2] the test system is P. falciparum 3D7. The data set can be described thus: Stage-specific microscopy examination (ring, trophozoite, schizont). The settings on record: ring, trophozoite, schizont stages, artemisinin and chloroquine at all concentrations, Compounds 31 and 32 at 100 times IC50. In kind it is cell-based, Plasmodium falciparum. The protocol:
(§1) To ensure uniformity, the parasites underwent a rigorous synchronization process using a two-step sorbitol treatment procedure. This synchronized parasite population was harnessed within a 2-h window for the ring stage, 8–10 h for the trophozoite stage, and 24–26 h for the schizont stage. Subsequent to sorbitol treatment, early trophozoites could be obtained within 6–8 h after the initial sorbitol treatment (within 20 h of development), while early schizonts could be obtained after an additional 16 h of incubation (within 36 h of development). Beyond 36 h, the schizonts mature, causing the rupture of red blood cells (RBCs) and the consequent release of merozoites, which promptly infect new RBCs.
The negative control group consisted of cultures treated solely with complete medium and was designated the no treatment (NT) group. This analysis was repeated three times at each concentration. Following a 24-h incubation period, the culture in a 96-well plate was centrifuged at 1300 g for 5 min to settle down the iRBC; then, the supernatants were removed, and the iRBCs were washed with fresh media at the same volume as the initial culture. The centrifugation and washing were repeated 3 times, allowing the compound to be diluted by approximately 1000 times. Subsequently, thin blood smears from each treatment group were prepared using 1 μL of settled iRBCs. The proportion of parasites affected by the drug, including those with both abnormal and retained morphologies, was calculated by examining 100 parasites and counting the number displaying irregular development. Subsequently, the number of abnormal parasites was divided by the total count and then multiplied by 100 to obtain a percentage. The parameters used to define normal and abnormal morphologies can be found in Table S3 and Fig. S1.

The test system of data set [3] is P. falciparum K1. The data set is described as follows: In vitro inhibition of P. falciparum K1 (SYBR Green I-based fluorescence assay). In kind it is cell-based. The settings on record: Plasmodium falciparum, read-out: IC50 P. falciparum K1. The protocol: (§2) The cultures were maintained in an incubator under specific conditions: 37 °C under 5% CO2 and 5% O2.
(§3) The D-sorbitol method (CAS: 50-70-4, Wako, Osaka, Japan) was employed to synchronize parasites, resulting in the attainment of ≥90% ring-stage parasites. These synchronized parasites were then utilized for the experiments within a 2-h window. The assay was performed as follows. First, 50 μL of synchronized parasites with 0.5% parasitemia and 2% hematocrit were added to individual wells of a 96-well plate. Then, 50 μL of the test compounds was introduced to each well. […] Wells containing only test compounds and erythrocytes were included for background correction. […] After the designated incubation time, 100 μL of lysis buffer containing 0.02% (v/v) SYBR Green I was added to each well, the contents of the well were mixed by pipetting, and the plate was incubated in the dark at room temperature for 2 h. […] This assay was repeated four times at each concentration, and the resulting inhibitory values represent the average from three independent trials.
(§4) The IC50 or CC50 values were determined from three independent experiments by plotting the logarithmic concentration of the compound against the percent parasite inhibition or cell growth inhibition, respectively. Nonlinear regression analysis was conducted using GraphPad Prism 10 (GraphPad Software, Inc., La Jolla, CA, USA). Comparisons between groups were evaluated using either one-way or two-way ANOVA followed by Tukey's or Fisher's multiple comparisons tests. […] The meaning of each symbol is specified in the corresponding figure legend alongside the name of the employed test.

For data set [4], the system named is P. falciparum 3D7. The data set is described as follows: Stage-specific assay on ring and schizont stages (SYBR Green I, 24 h). In kind it is cell-based, Plasmodium falciparum. The settings on record: eight concentrations from 100-fold IC50. The method, then:
as §1
Wells containing only the test compounds and erythrocytes were included to correct for background activity. The 96-well plates were incubated for 24 h at 37 °C in an atmosphere of 5% CO2 and 5% O2. The growth of P. falciparum 3D7 was detected using a SYBR Green I-based fluorescence assay.

Data set [5] has as its system P. falciparum 3D7. The data set is described as follows: IC50 speed assay (24, 48, 72 h). In kind it is cell-based, Plasmodium falciparum. The settings on record: for Speed of action (IC50 speed assay): IC50 at 24, 48, 72 h compared; for IC50: Plasmodium falciparum. The protocol: as §3
The subject of data set [6] is P. yoelii 17XNL. In kind it is in vivo. The settings on record: P. yoelii 17XNL-infected mice; 20 mg/kg/day. The method, then:
Male C57BL/6 mice, aged eight weeks, were obtained from Japan CLEA (Tokyo, Japan) and housed with six per cage in each group. These mice were kept under conditions of 24 °C, 50% relative humidity, and a light-dark cycle of 8 a.m. to 8 p.m. Access to drinking water and food (CLEA Rodent Diet CE-2; Japan CLEA, Tokyo, Japan) was unrestricted. Prior to experimentation, P. yoelii 17XNL was recovered from cryopreserved erythrocyte stocks via passage in mice. […]. Parasitemia levels were evaluated […] by collecting 2 μL of blood from the mouse tail for thin blood smear preparation. Treatment was initiated upon reaching a parasitemia level of 1%. […]. Parasitemia in infected mice was observed daily by preparing Giemsa-stained thin blood smears (up to 30 dpi). Hematocrit levels were measured every other day using a Celltac-α MEK-6550 (Nihon Kohden, Tokyo, Japan), with 10 μL of blood collected from the mouse tail for each assessment. The animals were handled and treated in accordance with the Guide for the Care and Use of Laboratory Animals by the Ministry of Education, Culture, Sports, Science, and Technology, Japan. Ethical permission for the animal experiment protocols was secured under permit numbers 21–35 and 23–90 from the ethical committee of Obihiro University of Agriculture and Veterinary Medicine.
The median point within this range was selected to maintain a balance between efficacy and safety. Furthermore, a modified Peter's suppression test was utilized to assess the efficacy of antimalarial drugs ([Ager, 1984]; [Peters et al., 1975]). The treatment and observation period were initially set for 4 days. […] […]. […] These findings highlight the effect of the 20 mg/kg/day dosage of Compounds 31 and 32 in reducing parasitemia without causing side effects.

For data set [7], the system named is P. falciparum 3D7. The data set is described as follows: In vitro inhibition of P. falciparum 3D7 (SYBR Green I-based fluorescence assay). In kind it is cell-based, Plasmodium falciparum. On the set-up: logIC50: unit not given here. The settings on record: for IC50: Plasmodium falciparum; for logIC50: base-10 log-transformed IC50 against P. falciparum 3D7. The method, then:
as §2, §3, §4

Where [8] appears, read: multidrug-resistant strain K1, 72 h incubation, average ± SD, three independent experiments.
Where [9] appears, read: Table S2, P. falciparum 3D7, value used for SAR analysis, read-out: IC50.
[10] abbreviates: chloroquine-sensitive strain 3D7, 72 h incubation, average ± SD, three independent experiments, read-out: IC50 P. falciparum 3D7.

The CC50 is the concentration giving 50% cytotoxicity. As usually defined, the IC50 is the concentration that gives 50% inhibition.

Structures are written as SMILES. Like-named read-outs stand apart in the source and are kept apart here.

`C[C@@H]1CC[C@H]2[C@@H](C)C(=O)O[C@@H]3O[C@@]4(C)CC[C@@H]1[C@]32OO4` [Artemisinin, artemisinin, reference compound] displayed a CC50 in data set [1] of 153 ± 30.8 µM. The “Parasite morphology after 24 h treatment” value in data set [2] is “death and shrinkage of the parasite at all stages”. Moreover, the IC50 in data set [3] (setting [8]) stood at 0.019 ± 0.002 µM; in data set [5] (P. falciparum 3D7, 24 h incubation, read-out: IC50 24 h) it was 0.037 ± 0.005 µM; in data set [5] (P. falciparum 3D7, 48 h incubation, read-out: IC50 48 h) it was 0.023 ± 0.002 µM. The “Stage specificity (ring and schizont stages)” value in data set [4] is “potency against ring and schizont stages”. The “Speed of action (IC50 speed assay)” value in data set [5] (P. falciparum 3D7) is reported as “fast-acting”.

Consider `CCN(CC)CCCC(C)Nc1ccnc2cc(Cl)ccc12` (stereo not drawn) [Chloroquine (diphosphate), chloroquine diphosphate, reference compound], for which the “Treatment duration required to decrease the parasitemia levels from the peak of infection” value in data set [6] is 7 days. Also, the IC50 in data set [7] (3D7, 72 h, read-out: IC50 P. falciparum 3D7) turned out to be 0.026 ± 0.003 µM; in data set [3] (K1, 72 h) it was 0.784 ± 0.073 µM; in data set [5] (3D7, 24 h, read-out: IC50 24 h) it was 0.046 ± 0.003 µM; in data set [5] (3D7, 48 h, read-out: IC50 48 h) it was 0.022 ± 0.004 µM; in data set [5] (3D7, 72 h, read-out: IC50 72 h), 0.026 ± 0.004 µM. Also, the “Parasite morphology after 24 h treatment” value in data set [2] is “death and shrinkage of the parasite at all stages”. Also, the “Stage specificity (ring and schizont stages)” value in data set [4] is “potency against ring and schizont stages”. In data set [5] (P. falciparum 3D7), the “Speed of action (IC50 speed assay)” value is given as “fast-acting”.

As for `Oc1ccccc1-c1cnc(-c2cccc(O)c2O)s1` [Compound 40], the IC50 in data set [7] (setting [9]) was found to be 3.95 µM; in data set [7] (setting [10]) it was 3.95 ± 1.38 µM; in data set [3] (setting [8]), 1.74 ± 0.89 µM. Also, in data set [7] (Table S2), the logIC50 is 0.597. Further, the CC50 in data set [1] is 46.3 ± 5.84 µM.

Regarding `Oc1ccccc1-c1nnc(-c2cccc(O)c2O)o1` [Compound 42], the IC50 turned out to be 9.53 µM in data set [7] (setting [9]), 9.53 ± 3.15 µM in data set [7] (setting [10]) and 6.19 ± 2.66 µM in data set [3] (setting [8]). In data set [7] (Table S2), this compound showed a logIC50 of 0.9793. The compound further displayed a CC50 in data set [1] of 52.5 ± 13.2 µM.

Consider `Oc1ccccc1-c1nnc(-c2cccc(O)c2O)s1` [Compound 44], for which the IC50 in data set [7] (setting [9]) was found to be 6.41 µM; in data set [7] (setting [10]) it was 6.41 ± 1.16 µM; in data set [3] (setting [8]), 3.91 ± 1.45 µM. Also, in data set [7] (Table S2), the logIC50 was found to be 0.8066. This compound also registered a CC50 in data set [1] of 160 ± 62.3 µM.

On to `Oc1ccccc1-c1coc(-c2cccc(O)c2O)n1` [Compound 47], for which the IC50 turned out to be 4.63 µM in data set [7] (setting [9]), 4.63 ± 1.18 µM in data set [7] (setting [10]) and 3.13 ± 1.21 µM in data set [3] (setting [8]). The compound further showed a logIC50 in data set [7] (Table S2) of 0.6658. This compound also had a CC50 in data set [1] of 71 ± 23.1 µM.

(Values after article PMC11067372, “Evaluation of the antiplasmodial efficacy of synthetic 2,5-diphenyloxazole analogs of compounds naturally derived from Oxytropis lanata” (International Journal for Parasitology: Drugs and Drug …, 2024).)
